Results on six sequences are retold here after publication PMC8438848 (Journal for Immunotherapy of Cancer, 2021).

Test [1] deals with HLA-A03:01 (Homo sapiens, UniProt P04439). The experiment in a line: IC50 in vitro measurement, peptide exchange assay with fluorescence anisotropy. In general terms: Polarisation of emitted light reports the rotation of a fluorescent probe.
The target in test [2] is HLA-B27:05 (Homo sapiens, UniProt P01889, D138H/D201E/E176V/E204Q/G107R/H137Y/K202T/N104T/N87E/Q56L/Q94K/R106L/R155S/R180L/S101D/S121N/S48T/Y140D/Y33H/Y91C). Described as above. The format is binding.

Ends that are not written are not given here.

RLFPGLAIK [KIF2C^WT] registered a half-inhibitory concentration (IC50) in test [1] of 146.2 ± 1.1 nM.

Regarding KPILWRGLK [NCAPG2^WT], in test [1], the IC50 was determined as 4490 nM.

GRIAFSLKY [SYTL4^WT] had a half-maximal inhibitory concentration (IC50) in test [2] of 97.3 ± 2.1 nM.

In turn, GRIAFFLKY [SYTL4^S363F] came in with an IC50 in test [2] of 214.7 ± 1.8 nM.

The sequence RLFLGLAIK [KIF2C^P13L] yielded an IC50 in test [1] of 237.4 ± 2 nM.

Turning to KLILWRGLK [NCAPG2^P333L], in test [1], the IC50 is 202.9 ± 1.03 nM.

The term IC50 denotes the midpoint of a concentration-inhibition curve.
